{"source": "patent US20240327425A1", "about": "“KRAS G12D INHIBITOR AND USE THEREOF” (SHANGHAI DE NOVO PHARMATECH CO., LTD., priority 2021, published 2024)", "key": {"[1]": {"system": "GP2D human colon cancer cells", "experiment": "Cell proliferation assay (Cell Titer-Glo), GP2D", "type": "cell-based", "settings": "Homo sapiens, 72 hours", "experimental": "(§1) On day 1, AGS human gastric cancer cells, ASPC-1 human pancreatic cancer cells, or GP2D human colon cancer cells (Nanjing Cobioer Biosciences Co. Ltd.) in the logarithmic growth phase were taken, digested with an appropriate amount of trypsin, formulated into a single cell suspension using RPMI 1640 (Gibco) medium containing 10% fetal bovine serum and 1% penicillin-streptomycin, counted to adjust the cell density, inoculated in a 96-well plate at 95 μL/well so that there were 3000 cells per well, and then the cell culture plate was incubated in a 37° C., 5% CO2 incubator for overnight. On day 2, a 10 mM concentrated stock solution of KRAS G12D inhibitor was 3-fold serially diluted with dimethyl sulfoxide solution, and then diluted with AGS complete culture medium to make a working solution, which was added to a cell culture plate at 5 μL/well so that the compound had the highest concentration of 10 μM and the lowest concentration of 0.0015 μM, and the control group was 0.5% dimethyl sulfoxide. The cell culture plate was briefly centrifuged and then incubated in a CO2 incubator for 72 hours. On day 5, the cell culture plate was taken out, added with Cell Titer-Glo (Promega) detection reagent in each well, incubated in the dark for 10 minutes, and then luminescence was detected using a microplate reader (Tecan, Infinite M1000 Pro). Data were analyzed using Graphpad software, and curve fitting was performed with four-parameter equation and the IC50 value of the inhibitor was calculated."}, "[2]": {"system": "GP2D human colon cancer cells subcutaneous xenograft tumor", "experiment": "In vivo pharmacodynamic experiment of subcutaneous xenograft tumor model in mice of GP2D human colon cancer cells", "settings": "BALB/c nude mice; for Tumor volume (11 days, mm^3): 11 days (at grouping)", "experimental": "Cell culture: GP2D human colon cancer cells were maintained in monolayer culture in DMEM culture medium containing 10% fetal bovine serum in a constant temperature incubator containing 5% CO2 at 37° C. Tumor cells were passaged twice a week. Cells in the exponential growth phase were harvested and counted for inoculation.\nExperimental animals: BALB/c nude mice, 6 to 8 weeks, 18 to 22 g, purchased from Jiangsu GemPharmatech Co. Ltd.\nExperimental method: GP2D cell line ([…]) was inoculated subcutaneously on the right back of experimental mice. The inoculation volume of each mouse was 0.1 mL. The growth of the tumor was observed regularly. When the tumor grew to about 150 mm^3, the mice were randomly grouped according to the tumor size and body weight, and the drug was administrated according to the administration plan shown in Table 1. The body weight and tumor size were measured twice a week throughout the experiment.\ntumor volume (mm^3)=0.5×(tumor long diameter×tumor short diameter^2). Tumor size calculation formula: […]"}, "[3]": {"target": "Human KRAS G12D His-tagged protein (Homo sapiens (Human), UniProt P01116, G12D)", "sequence (P01116-2 other isoform, or with tags, fused parts or gaps G12D)": "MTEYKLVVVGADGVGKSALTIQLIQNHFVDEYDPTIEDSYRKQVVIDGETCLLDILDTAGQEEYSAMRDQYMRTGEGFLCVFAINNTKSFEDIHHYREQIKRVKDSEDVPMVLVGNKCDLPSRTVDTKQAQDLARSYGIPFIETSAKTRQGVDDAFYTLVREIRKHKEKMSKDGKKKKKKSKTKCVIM", "experiment": "KRAS G12D binding assay (TR-FRET)", "settings": "GDP 20 nM, GTP-Red", "experimental": "The binding ability of the compound to KRAS G12D protein was detected by TR-FRET method, and the inhibitory activity of the compound on KRAS G12D protein was evaluated. Human KRAS G12D His-tagged (Cisbio, 63ADK000CB27PEG) protein was 100-fold diluted with PPI Eu detection buffer (Cisbio, 61DB9RBF), then 5 μL of which was added to a 384-well plate and centrifuged at 2000 rpm for 40 seconds. A 10 mM concentrated stock solution of the test compound was prepared with dimethyl sulfoxide, 3-fold serially diluted, then diluted to make a working solution (0.5% DMSO) with PPI Eu detection buffer, added to a 384-well plate at 5 μL/well, with the control group added with 0.5% dimethyl sulfoxide and the highest concentration of the test compound at 10 μM, and centrifuged at 2000 rpm for 40 seconds. An 80 nM GDP standard working solution (Cisbio, 63ADK000CB27PEG) was prepared with PPI Eu detection buffer and added to a 384-well plate at 5 μL/well, with the final concentration of GDP standard working solution at 20 nM. The plate was centrifuged at 2000 rpm for 40 seconds and reacted at room temperature for 30 minutes. 1×6His Eu cryptate antibody and GTP-Red reagent (Cisbio, 63ADK000CB27PEG) were prepared with PPI Eu detection buffer, mixed in a volume ratio of 1:1, 5 μL of which was then added to a 384-well plate, centrifuged at 2000 rpm for 40 seconds, and incubated at room temperature for 30 minutes. The fluorescence intensity at 620 nm and 665 nm was detected by a microplate reader, and the inhibitory activity of the compound on KRAS G12D protein was obtained by fitting a four-parameter equation."}, "[4]": {"system": "phosphorylation level of ERK1/2 in ASPC-1 human pancreatic cancer cells", "experiment": "pERK cell level assay (PHOSPHO-ERK1/2 HTRF kit)", "type": "cell-based", "settings": "Homo sapiens, ASPC1, pERK1/2 (THR202/TYR204), Aspc-1 cells, 4 hours incubation", "experimental": "In this experiment, the phosphorylation level of ERK1/2 in AGS human gastric cancer cells or ASPC-1 human pancreatic cancer cells was detected using PHOSPHO-ERK1/2 (THR202/TYR 204) (Cisibo, 64ERKPEH) kit, and the inhibitory effect of the compounds on KRAS G12D was investigated based on the phosphorylation level of ERK1/2.\nOn day 1, the density of AGS cell (ATCC) suspension was adjusted to 2.1×10^5 cells/mL, then the suspension was spread in a 96-well plate at 95 μL/well so that there were 2×10^4 cells per well, and the cell culture plate was incubated in a 37° C., 5% CO2 incubator for overnight. On day 2, the compound was serially diluted with 100% dimethyl sulfoxide, and then further diluted with a complete culture medium (RPMI-1640+10% FBS+1% PS) to make a working solution of the compound, which was added to a 96-well cell culture plate at 5 μL/well, and incubated in a 37° C., 5% CO2 incubator for 4 hours. After the incubation was completed, the culture medium was discarded, then 1× lysis buffer was added thereto at 50 μL/well, and the plate was shaken at room temperature for 30 minutes. 16 μL of lysis buffer was added to a white 384-well shallow well plate, then 4 μL of pre-formulated antibody mixture was added thereto, and the plate was sealed with microplate sealer and incubated at room temperature for overnight. On day 3, detection was performed on a TECAN M1000 Pro microplate reader using the HTRF setting, and the IC50 value of the compound was calculated."}, "[5]": {"system": "ASPC-1 human pancreatic cancer cells", "experiment": "Cell proliferation assay (Cell Titer-Glo), ASPC-1", "type": "cell-based", "settings": "Homo sapiens, ASPC1, Aspc-1, 72 hours", "experimental": "as §1"}}, "data": [{"compound": "N#Cc1c(N)sc2cccc(-c3c(Cl)c4c5c(nc(OC[C@@]67CCCN6C[C@H](F)C7)nc5c3F)N3C[C@H]5CC[C@H](N5)[C@H]3CO4)c12", "note": "(single isomer, unassigned) [Compound I-7-2]", "values": [{"measurement": "IC50", "setting": "[1]", "value": 0.095, "unit": "nM"}, {"measurement": "Tumor volume (11 days, mm^3)", "setting": "[2]; 3 mg/kg i.p. twice a day", "value": "140.32 ± 19.74", "unit": "mm^3"}, {"measurement": "Tumor volume (21 days, mm^3)", "setting": "[2]; 3 mg/kg i.p. twice a day", "value": "80.27 ± 11.38", "unit": "mm^3"}, {"measurement": "T/C (%)", "setting": "[2]; 3 mg/kg i.p. twice a day", "value": 18.6, "unit": "%"}, {"measurement": "Tumor regression rate (%)", "setting": "[2]; 3 mg/kg i.p. twice a day", "value": "−39.9", "unit": "%"}, {"measurement": "Tumor volume (11 days, mm^3)", "setting": "[2]; 10 mg/kg i.p. twice a day", "value": "139.69 ± 17.49", "unit": "mm^3"}, {"measurement": "Tumor volume (21 days, mm^3)", "setting": "[2]; 10 mg/kg i.p. twice a day", "value": "70.19 ± 11.89", "unit": "mm^3"}, {"measurement": "T/C (%)", "setting": "[2]; 10 mg/kg i.p. twice a day", "value": 15.5, "unit": "%"}, {"measurement": "Tumor regression rate (%)", "setting": "[2]; 10 mg/kg i.p. twice a day", "value": "−49.8", "unit": "%"}, {"measurement": "IC50", "setting": "[3]", "value": 2.44, "unit": "nM"}, {"measurement": "IC50", "setting": "[4]", "value": 0.544, "unit": "nM"}, {"measurement": "IC50", "setting": "[5]", "value": 1.7, "unit": "nM"}]}]}
